Measured values as given in patent US9359352B2, “Substituted benzimidazoles as PI3 kinase inhibitors” (Intellikine LLC, priority 2010, dated 2016).

How the values were obtained:
Format in all cases: biochemical
PI3K γ = molecular target: T1, PI3K γ (Homo sapiens, UniProt P48736); assay: PI 3-Kinase HTRF inhibition assay, PI3K γ; settings: in vitro
T1 construct: purchased Upstate

PI3K α = molecular target: T2, PI3K α (Homo sapiens, UniProt P42336); assay: PI 3-Kinase HTRF inhibition assay, PI3K α; settings: in vitro; read-out: PI3K α IC50
T2 construct: purchased Upstate
Experimental: (§1) Commercial kits or systems for assaying PI3-K activities are available. The commercially available kits or systems can be used to screen for inhibitors and/or agonists of PI3-Ks including but not limited to PI 3-Kinase α, β, δ, and γ. An exemplary system is PI 3-Kinase (human) HTRF™ Assay from Upstate. […] Briefly, the assay is a time resolved FRET assay that indirectly measures PIP3 product formed by the activity of a PI3-K. The kinase reaction is performed in a microtitre plate (e.g., a 384 well microtitre plate). The total reaction volume is approximately 20 ul per well. In the first step, each well receives 2 ul of test compound in 20% dimethylsulphoxide resulting in a 2% DMSO final concentration. Next, approximately 14.5 ul of a kinase/PIP2 mixture (diluted in 1× reaction buffer) is added per well for a final concentration of 0.25-0.3 ug/ml kinase and 10 μM PIP2. The plate is scaled and incubated for 15 minutes at room temperature. To start the reaction, 3.5 ul of ATP (diluted in 1× reaction buffer) is added per well for a final concentration of 10 μM ATP. The plate is sealed and incubated for 1 hour at room temperature. The reaction is stopped by adding 5 ul of Stop Solution per well and then 5 ul of Detection Mix is added per well. The plate is sealed, incubated for 1 hour at room temperature, and then read on an appropriate plate reader. Data is analyzed and IC50s are generated using GraphPad Prism 5. For PI3K α, β, δ, and γ, the nM concentration of inhibitor to reach IC50 is provided. […] Similar assays, and others known in the art, can be used to measure the percent inhibition of other kinases, including but not limited to PI3K class II kinases, phosphoinositide 4 kinases (PI4K), and phosphoinositide 5 kinases (PI5K).

PI3K δ = molecular target: T3, PI3K δ (Homo sapiens, UniProt O00329); assay: PI 3-Kinase HTRF inhibition assay, PI3K δ; settings: in vitro; read-out: PI3K δ IC50
T3 construct: purchased Upstate
Experimental: as §1

PI3K β = molecular target: T4, PI3K β (Homo sapiens, UniProt P42338); assay: PI 3-Kinase HTRF inhibition assay, PI3K β; settings: in vitro
T4 construct: purchased Upstate
Experimental: as §1

T2 sequence (P42336 whole entry): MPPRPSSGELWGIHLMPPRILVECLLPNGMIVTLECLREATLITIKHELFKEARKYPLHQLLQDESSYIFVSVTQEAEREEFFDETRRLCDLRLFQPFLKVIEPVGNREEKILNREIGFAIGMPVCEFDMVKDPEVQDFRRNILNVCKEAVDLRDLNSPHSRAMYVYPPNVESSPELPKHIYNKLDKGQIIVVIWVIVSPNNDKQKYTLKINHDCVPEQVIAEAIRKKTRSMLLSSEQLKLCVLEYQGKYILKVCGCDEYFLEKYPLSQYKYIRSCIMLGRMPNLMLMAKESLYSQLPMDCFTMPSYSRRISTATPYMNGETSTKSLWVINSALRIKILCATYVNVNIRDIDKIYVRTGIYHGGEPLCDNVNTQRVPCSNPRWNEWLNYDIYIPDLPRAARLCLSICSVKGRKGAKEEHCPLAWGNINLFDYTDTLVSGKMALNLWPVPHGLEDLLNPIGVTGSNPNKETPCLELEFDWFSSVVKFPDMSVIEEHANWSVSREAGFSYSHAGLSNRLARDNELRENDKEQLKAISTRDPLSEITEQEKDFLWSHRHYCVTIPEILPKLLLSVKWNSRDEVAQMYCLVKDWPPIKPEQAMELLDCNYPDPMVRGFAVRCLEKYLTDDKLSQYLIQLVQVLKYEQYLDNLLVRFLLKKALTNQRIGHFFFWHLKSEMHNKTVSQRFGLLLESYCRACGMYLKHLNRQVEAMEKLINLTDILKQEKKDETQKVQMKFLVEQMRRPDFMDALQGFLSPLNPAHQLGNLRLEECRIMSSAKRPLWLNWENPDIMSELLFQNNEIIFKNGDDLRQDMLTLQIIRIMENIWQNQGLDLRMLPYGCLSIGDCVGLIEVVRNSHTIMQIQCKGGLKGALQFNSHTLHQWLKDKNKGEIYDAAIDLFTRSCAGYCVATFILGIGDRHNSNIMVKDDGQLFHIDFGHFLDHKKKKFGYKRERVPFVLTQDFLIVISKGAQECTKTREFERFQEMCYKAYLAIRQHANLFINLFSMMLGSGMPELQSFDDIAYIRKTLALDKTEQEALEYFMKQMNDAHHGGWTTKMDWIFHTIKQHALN
T2 sequence (P27986 whole entry partner): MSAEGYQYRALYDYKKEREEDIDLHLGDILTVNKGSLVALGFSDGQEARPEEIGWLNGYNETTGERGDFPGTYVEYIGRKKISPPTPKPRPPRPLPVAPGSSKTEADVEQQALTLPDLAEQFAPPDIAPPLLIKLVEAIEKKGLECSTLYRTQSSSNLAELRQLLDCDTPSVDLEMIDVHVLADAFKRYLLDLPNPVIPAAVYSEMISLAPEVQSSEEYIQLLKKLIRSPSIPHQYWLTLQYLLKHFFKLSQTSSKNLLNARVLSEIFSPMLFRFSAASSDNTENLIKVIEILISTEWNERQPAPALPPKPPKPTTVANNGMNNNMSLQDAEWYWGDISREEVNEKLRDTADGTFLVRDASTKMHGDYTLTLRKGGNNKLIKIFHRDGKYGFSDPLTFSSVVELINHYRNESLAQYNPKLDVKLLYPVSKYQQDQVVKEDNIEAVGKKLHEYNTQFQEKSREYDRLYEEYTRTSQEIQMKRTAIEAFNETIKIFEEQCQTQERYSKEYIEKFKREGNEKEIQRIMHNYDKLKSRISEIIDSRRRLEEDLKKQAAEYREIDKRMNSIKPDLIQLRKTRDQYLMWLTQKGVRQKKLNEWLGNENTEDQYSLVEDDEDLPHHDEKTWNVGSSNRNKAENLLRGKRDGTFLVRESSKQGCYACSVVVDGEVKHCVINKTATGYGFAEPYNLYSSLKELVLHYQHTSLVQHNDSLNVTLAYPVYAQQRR
T1 sequence (P48736 whole entry): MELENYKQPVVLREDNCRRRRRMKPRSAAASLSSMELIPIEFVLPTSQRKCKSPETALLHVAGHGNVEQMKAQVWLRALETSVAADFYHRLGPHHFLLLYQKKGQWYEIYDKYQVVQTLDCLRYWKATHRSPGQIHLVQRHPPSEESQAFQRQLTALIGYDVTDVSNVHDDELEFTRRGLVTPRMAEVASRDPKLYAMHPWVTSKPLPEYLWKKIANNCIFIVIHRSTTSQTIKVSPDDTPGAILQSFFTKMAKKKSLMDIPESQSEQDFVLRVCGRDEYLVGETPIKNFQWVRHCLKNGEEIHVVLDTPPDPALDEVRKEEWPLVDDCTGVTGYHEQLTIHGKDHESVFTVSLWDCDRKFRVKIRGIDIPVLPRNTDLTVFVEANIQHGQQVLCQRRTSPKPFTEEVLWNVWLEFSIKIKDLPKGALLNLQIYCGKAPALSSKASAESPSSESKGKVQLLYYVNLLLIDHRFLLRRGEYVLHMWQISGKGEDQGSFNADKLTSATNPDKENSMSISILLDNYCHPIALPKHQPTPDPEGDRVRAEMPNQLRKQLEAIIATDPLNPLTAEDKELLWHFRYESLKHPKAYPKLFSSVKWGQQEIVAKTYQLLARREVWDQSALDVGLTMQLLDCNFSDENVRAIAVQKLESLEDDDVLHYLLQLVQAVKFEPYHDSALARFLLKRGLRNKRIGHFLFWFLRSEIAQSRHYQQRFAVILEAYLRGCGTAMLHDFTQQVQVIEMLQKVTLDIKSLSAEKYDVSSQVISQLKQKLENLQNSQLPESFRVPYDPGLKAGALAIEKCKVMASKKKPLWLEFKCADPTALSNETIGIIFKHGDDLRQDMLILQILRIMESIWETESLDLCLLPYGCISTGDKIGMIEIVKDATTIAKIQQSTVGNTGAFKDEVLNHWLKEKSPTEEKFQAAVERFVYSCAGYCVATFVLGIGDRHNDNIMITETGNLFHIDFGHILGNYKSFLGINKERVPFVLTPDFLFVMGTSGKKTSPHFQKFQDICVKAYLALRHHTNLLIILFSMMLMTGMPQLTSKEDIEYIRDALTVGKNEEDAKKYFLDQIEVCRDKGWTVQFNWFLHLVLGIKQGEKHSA
T4 sequence (P42338 whole entry): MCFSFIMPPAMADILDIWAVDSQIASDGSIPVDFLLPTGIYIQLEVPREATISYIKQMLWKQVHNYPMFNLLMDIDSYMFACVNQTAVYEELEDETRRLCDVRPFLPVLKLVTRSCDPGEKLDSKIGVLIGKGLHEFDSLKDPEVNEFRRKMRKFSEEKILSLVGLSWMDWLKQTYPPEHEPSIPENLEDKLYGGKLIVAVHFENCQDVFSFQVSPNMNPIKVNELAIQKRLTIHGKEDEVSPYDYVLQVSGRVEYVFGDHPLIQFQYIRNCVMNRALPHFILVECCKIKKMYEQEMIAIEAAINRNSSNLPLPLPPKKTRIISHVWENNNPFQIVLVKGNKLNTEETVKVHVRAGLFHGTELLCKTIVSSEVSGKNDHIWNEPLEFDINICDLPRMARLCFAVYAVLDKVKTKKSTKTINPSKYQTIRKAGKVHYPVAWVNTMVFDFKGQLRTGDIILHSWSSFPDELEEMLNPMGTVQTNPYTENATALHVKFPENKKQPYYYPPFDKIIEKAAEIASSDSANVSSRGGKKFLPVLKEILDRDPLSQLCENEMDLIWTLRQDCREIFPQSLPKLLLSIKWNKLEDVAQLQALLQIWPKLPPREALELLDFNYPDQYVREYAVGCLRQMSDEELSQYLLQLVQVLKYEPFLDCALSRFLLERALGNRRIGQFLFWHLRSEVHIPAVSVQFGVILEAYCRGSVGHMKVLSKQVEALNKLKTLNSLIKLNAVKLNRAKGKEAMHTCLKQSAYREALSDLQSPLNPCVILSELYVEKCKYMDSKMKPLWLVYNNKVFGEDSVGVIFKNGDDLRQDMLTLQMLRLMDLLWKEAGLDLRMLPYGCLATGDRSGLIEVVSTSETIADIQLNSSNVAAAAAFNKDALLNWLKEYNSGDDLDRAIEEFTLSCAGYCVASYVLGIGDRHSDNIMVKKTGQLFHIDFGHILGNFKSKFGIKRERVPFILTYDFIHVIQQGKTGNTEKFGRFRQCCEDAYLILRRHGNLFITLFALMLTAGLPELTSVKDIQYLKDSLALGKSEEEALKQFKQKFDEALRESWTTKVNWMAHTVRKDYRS
T4 sequence (P27986 whole entry partner): as the sequence (P27986 whole entry partner) above
T3 sequence (O00329 whole entry): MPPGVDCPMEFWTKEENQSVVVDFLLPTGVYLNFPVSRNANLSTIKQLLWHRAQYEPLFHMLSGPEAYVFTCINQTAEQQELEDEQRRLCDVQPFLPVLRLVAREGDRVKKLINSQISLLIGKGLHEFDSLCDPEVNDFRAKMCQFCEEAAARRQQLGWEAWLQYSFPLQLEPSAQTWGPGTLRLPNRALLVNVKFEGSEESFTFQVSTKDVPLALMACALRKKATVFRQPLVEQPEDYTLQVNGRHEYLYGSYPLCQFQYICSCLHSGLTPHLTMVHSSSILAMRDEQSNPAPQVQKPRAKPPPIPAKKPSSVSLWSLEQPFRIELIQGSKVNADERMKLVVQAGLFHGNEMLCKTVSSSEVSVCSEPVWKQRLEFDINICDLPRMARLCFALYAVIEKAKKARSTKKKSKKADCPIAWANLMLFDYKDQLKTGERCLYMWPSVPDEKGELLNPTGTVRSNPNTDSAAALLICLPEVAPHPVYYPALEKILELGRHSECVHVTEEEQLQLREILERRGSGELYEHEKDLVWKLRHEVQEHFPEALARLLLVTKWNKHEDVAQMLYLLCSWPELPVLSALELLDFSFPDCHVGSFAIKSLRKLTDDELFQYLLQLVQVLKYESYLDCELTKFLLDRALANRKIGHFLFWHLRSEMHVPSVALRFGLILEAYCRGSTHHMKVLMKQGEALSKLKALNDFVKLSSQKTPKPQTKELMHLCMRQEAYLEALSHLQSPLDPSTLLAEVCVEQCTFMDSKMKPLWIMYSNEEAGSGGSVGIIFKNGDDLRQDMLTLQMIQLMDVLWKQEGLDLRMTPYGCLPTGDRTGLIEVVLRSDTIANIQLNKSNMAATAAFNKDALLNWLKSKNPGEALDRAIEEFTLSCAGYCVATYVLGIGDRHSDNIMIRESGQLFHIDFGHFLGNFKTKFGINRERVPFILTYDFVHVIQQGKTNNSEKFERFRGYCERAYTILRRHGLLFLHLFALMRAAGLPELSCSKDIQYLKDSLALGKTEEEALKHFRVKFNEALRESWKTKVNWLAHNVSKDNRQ
T3 sequence (P27986 whole entry partner): as the sequence (P27986 whole entry partner) above

| SMILES | IC50 (PI3K γ) [nM] | IC50 (PI3K α) [nM] | IC50 (PI3K δ) [nM] | IC50 (PI3K β) [nM] |
| --- | --- | --- | --- | --- |
| C[C@H]1CN(c2cnc3ccc(-c4ccc5oc(N)nc5c4)nc3n2)CCN1 [Compound 1] | < 10000 | < 1000 | < 10000 | < 100 |
| Nc1nc2cc(-c3ccc4ncc(N5CCOCC5)nc4n3)ccc2o1 [Compound 2, 5-(3-morpholinopyrido[2,3-b]pyrazin-6-yl)benzo[d]oxazol-2-amine] | < 100 | < 100 | > 10000 | < 1000 |
| Nc1nc2cc(-c3ccc4ncc(-c5cccnc5)nc4n3)ccc2o1 [Compound 3] | < 1000 | < 1000 | > 10000 | < 10000 |
| CN1CCN(c2cnc3ccc(-c4ccc5oc(N)nc5c4)nc3n2)CC1 [Compound 4] | < 10000 | < 1000 | < 10000 | < 1000 |
| Nc1nc2cc(-c3ccc4ncc(N5CC(N6CCOCC6)C5)nc4n3)ccc2o1 [Compound 5] | < 10000 | < 100 | < 10000 | > 10000 |
| CCOC(=O)N1CCN(c2cnc3ccc(-c4ccc5oc(N)nc5c4)nc3n2)CC1 [Compound 6] | < 1000 | < 100 | < 1000 | < 1000 |
| Nc1nc2cc(-c3ccc4nc(N5CCOCC5)cnc4n3)ccc2o1 [Compound 7] | > 10000 | > 10000 | > 10000 | > 10000 |
| CS(=O)(=O)N1CCN(C2CN(c3cnc4ccc(-c5ccc6oc(N)nc6c5)nc4n3)C2)CC1 [Compound 8] | < 1000 | < 100 | < 10000 | > 10000 |
| CCOC(=O)N1CC=C(c2cnc3ccc(-c4ccc5oc(N)nc5c4)nc3n2)CC1 [Compound 9] | < 100 | < 100 | < 10000 | < 10000 |
| C[C@H]1CN(C2CN(c3cnc4ccc(-c5ccc6oc(N)nc6c5)nc4n3)C2)CCN1 [Compound 10] | < 10000 | < 100 | < 10000 | > 10000 |
| Nc1nc2cc(-c3ccc4ncc(C5=CCOCC5)nc4n3)ccc2o1 [Compound 11] | < 100 | < 100 | > 10000 | < 10000 |
| C[C@@H]1CN(C2CN(c3cnc4ccc(-c5ccc6oc(N)nc6c5)nc4n3)C2)CCN1 [Compound 12] | > 10000 | < 100 | < 10000 | > 10000 |
| Nc1nc2cc(-c3ccc4ncc(N5CCC(F)(F)CC5)nc4n3)ccc2o1 [Compound 13] | < 100 | < 100 | > 10000 | > 10000 |
| C[C@@H]1COCCN1c1cnc2ccc(-c3ccc4oc(N)nc4c3)nc2n1 [Compound 14] | < 100 | < 100 | < 10000 | < 10000 |
| C[C@H]1COCCN1c1cnc2ccc(-c3ccc4oc(N)nc4c3)nc2n1 [Compound 15] | < 100 | < 100 | > 10000 | < 10000 |
| Nc1nc2cc(-c3ccc4ncc(-c5cccnc5)cc4n3)ccc2o1 [Compound 16] | < 100 | < 100 | < 10000 | < 10000 |
| CC1(C)CN(C2CN(c3cnc4ccc(-c5ccc6oc(N)nc6c5)nc4n3)C2)CCO1 [Compound 17] |  | < 1000 | > 10000 | > 10000 |
| CC1CN(C2CN(c3cnc4ccc(-c5ccc6oc(N)nc6c5)nc4n3)C2)CCO1 (stereo not shown) [Compound 18] | < 10000 | < 1000 | > 10000 | > 10000 |

| SMILES | IC50 (PI3K γ) [nM] | IC50 (PI3K α) [nM] | IC50 (PI3K δ) [nM] | IC50 (PI3K β) [nM] |
| --- | --- | --- | --- | --- |
| Nc1nc2cc(-c3ccc4ncc(N5CC(N6CC7CCC(C6)O7)C5)nc4n3)ccc2o1 [Compound 20] | < 10000 | < 1000 | > 10000 | > 10000 |
| C[C@H]1CN(C2CN(c3cnc4ccc(-c5ccc6oc(N)nc6c5)nc4n3)C2)CCN1C [Compound 21] | > 10000 | < 100 | < 10000 | > 10000 |
| Nc1nc2cc(-c3ccc4ncc(N5CCOCC5)cc4n3)ccc2o1 [Compound 22] | < 100 | < 100 | > 10000 | < 1000 |
| Nc1nc2cc(-c3ccc4ncc(N5C6CCC5COC6)cc4n3)ccc2o1 [Compound 23] | < 100 | < 100 | > 10000 | < 10000 |
| CN1CCN(c2cnc3ccc(-c4ccc5oc(N)nc5c4)nc3c2)CC1 [Compound 24] | < 1000 | < 100 | < 10000 | < 100 |
| C[C@@H]1CN(C2CN(c3cnc4ccc(-c5ccc6oc(N)nc6c5)nc4n3)C2)CCN1C [Compound 25] | < 10000 | < 100 | < 10000 | > 10000 |
| CCN(CC)c1cnc2ccc(-c3ccc4oc(N)nc4c3)nc2n1 [Compound 26] | < 1000 | < 1000 | < 10000 | > 10000 |
| C[C@@H]1CN(c2cnc3ccc(-c4ccc5oc(N)nc5c4)nc3n2)CCN1 [Compound 27] | < 1000 | < 100 | < 10000 | < 100 |
| Nc1nc2cc(-c3ccc4ncc(N5CC6CCC(C5)O6)nc4n3)ccc2o1 [Compound 28] | < 1000 | < 100 | > 10000 | > 10000 |
| Nc1nc2cc(-c3ccc4ncc(N5CCNC(=O)C5)nc4n3)ccc2o1 [Compound 29] | < 100 | < 100 | < 10000 | < 1000 |
| C[C@H](N)C(=O)N1CCN(c2cnc3ccc(-c4ccc5oc(N)nc5c4)nc3n2)CC1 [Compound 30] | < 100 | < 100 | < 100 | < 100 |
| C[C@@H](N)C(=O)N1CCN(c2cnc3ccc(-c4ccc5oc(N)nc5c4)nc3n2)CC1 [Compound 31] | < 1000 | < 100 | < 10000 | < 10000 |
| CC(C)N1CCN(c2cnc3ccc(-c4ccc5oc(N)nc5c4)nc3n2)CC1 [Compound 32] | < 1000 | < 100 | < 10000 | < 1000 |
| NCC(=O)N1CCN(c2cnc3ccc(-c4ccc5oc(N)nc5c4)nc3n2)CC1 [Compound 33] | < 10000 | < 100 | < 10000 | < 10000 |
| Nc1nc2cc(-c3ccc4ncc(N5CC(N6CCNCC6)C5)nc4n3)ccc2o1 [Compound 34] | > 10000 | < 1000 | > 10000 | > 10000 |
| Nc1nc2cc(-c3ccc4ncc(N5CCN(C(=O)C6(N)CC6)CC5)nc4n3)ccc2o1 [Compound 41] | < 100 | < 100 |  |  |
| CC(C)(N)C(=O)N1CCN(c2cnc3ccc(-c4ccc5oc(N)nc5c4)nc3c2)CC1 [Compound 43, 2-amino-1-(4-(6-(2-aminobenzo[d]oxazol-5-yl)-1,5-naphthyridin-3-yl)piperazin-1-yl)-2-methylpropan-1-one] | < 1000 | < 100 | < 1000 |  |
| CC(C)N1CCN(C2CN(c3cnc4ccc(-c5ccc6oc(N)nc6c5)nc4c3)C2)CC1 [Compound 72, 5-(7-(3-(4-isopropylpiperazin-1-yl)azetidin-1-yl)-1,5-naphthyridin-2-yl)benzo[d]oxazol-2-amine] |  | < 100 | < 1000 | < 1000 |
